In patent US8993585B2, “Cyclic amine substituted pyrimidinediamines as PKC inhibitors” (Rigel Pharmaceuticals, Inc., priority 2007, dated 2015):

System: Human primary T cells
Test: IL-2 ELISA, Human Primary T Cell, Anti-CD3+CD28+ (Example 3)
Type: cell-based
Settings: anti-CD3+CD28 stimulation
Procedure, shortened: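 IL-2 was read by ELISA after stimulation on wells pre-coated with 1 ug/ml αCD3 and 5 μg/ml αCD28. Before this, 100,000 human primary T cells per well spent 1 h at 37 °C with test compound in Yssel's medium. The counter-screen replaced antibody stimulation with PMA (0.5 ng/ml final) and ionomycin (0.1 uM final).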

Structure (SMILES)	IC50 (Homo sapiens, T-cell, 24 h) [nM]	IC50 (24 hours) [nM]
COC(=O)CCN1C(C)(C)CC(Nc2nc(Nc3ccc(OC)c(Cl)c3)ncc2F)CC1(C)C [Compound I-293]	2190	
CCCN1C(=O)C(C)(C)Oc2cc(Nc3ncc(F)c(NC4CC(C)(C)N(C)C(C)(C)C4)n3)ccc21 [II-48]	263	
CCOC(=O)c1cnc(Nc2ccc(N3CCN(S(C)(=O)=O)CC3)c(C(F)(F)F)c2)nc1NC1CC(C)(C)N(C)C(C)(C)C1 [Compound I-83]		7760
COc1ccc(Nc2ncc(F)c(NC3CC(C)(C)N(CCC(=O)O)C(C)(C)C3)n2)cc1C(F)(F)F [Compound I-305]		17900
COc1cc(Nc2ncc(F)c(NC3CC(C)(C)N(C)C(C)(C)C3)n2)cc(OC)c1 [Compound I-307]		327
CN1C(C)(C)CC(Nc2nc(Nc3ccc4c(c3)OCCO4)ncc2Br)CC1(C)C [II-127]	450	
CN1CCN(C(=O)c2ccc(Nc3ncc(F)c(NC4CC(C)(C)N(C)C(C)(C)C4)n3)cc2Cl)CC1 [Compound I-44]		2010
CN1C(C)(C)CC(Nc2nc(Nc3nc4ccccc4s3)ncc2F)CC1(C)C [II-16]	1640	
CCN1C(=O)C(C)(C)Oc2cc(Nc3ncc(C(F)(F)F)c(NC4CC(C)(C)N(C)C(C)(C)C4)n3)ccc21 [II-50]	91.8	
CN1C(C)(C)CC(Nc2nc(Nc3ccc4c(c3)OC3(CCCCC3)O4)ncc2F)CC1(C)C [II-114]	2630	
CN1C(C)(C)CC(Nc2nc(Nc3cc4c(cc3Cl)OCCO4)ncc2F)CC1(C)C [II-116]	1470	
CN1C(C)(C)CC(Nc2nc(Nc3ccc(OC(F)(F)F)c(Br)c3)ncc2F)CC1(C)C [Compound I-177]		764
CN1C(C)(C)CC(Nc2nc(N[C@H]3CCc4ccccc43)ncc2F)CC1(C)C [II-83]	19600	
CN1C(C)(C)CC(Nc2nc(Nc3ccc(O)cc3)ncc2F)CC1(C)C [Compound I-252]		10200
CN1C(C)(C)CC(Nc2nc(Nc3ccc(N4CCN(S(C)(=O)=O)CC4)c(C#N)c3)ncc2C(F)(F)F)CC1(C)C [Compound I-176]		655
COc1cc(Nc2ncc(F)c(NC3CC(C)(C)NC(C)(C)C3)n2)cc(OCCN2CCOCC2)c1 [Compound I-432]	1530	
CN1CC2(C)CN(c3ccc(Nc4ncc(F)c(NC5CC(C)(C)N(C)C(C)(C)C5)n4)cc3C(F)(F)F)CC(C)(C1)C2 [Compound I-259]		2540
CN1C(C)(C)CC(Nc2nc(Nc3cc4c(cc3Cl)OCO4)ncc2F)CC1(C)C [II-115]	1840	
COc1ccc(Nc2ncc(F)c(NC3CCN(CCO)CC3)n2)cc1Cl [III-5, N2-(3-Chloro-4-methoxy)phenyl-5-fluoro-N4-[1-(2-hydroxyethyl)piperidin-4-yl]-2,4-pyrimidinediamine]		3260
CC1(C)CC(Nc2nc(Nc3cccc(-n4cnnn4)c3)ncc2C(N)=O)CC(C)(C)N1 [Compound I-392]		4460
CCN(CC)C1CCC(Nc2nc(Nc3cccc(C#N)c3)ncc2F)CC1 (centres unmarked) [IV-6, N2-(3-Cyano)phenyl-N4-(4-diethylamino)cyclohexyl-5-fluoro-2,4-pyrimidinediamine]	4510	

Structure (SMILES)	IC50 (Homo sapiens, T-cell, 24 h) [nM]	IC50 (24 hours) [nM]
COc1ccc(-c2csc(Nc3ncc(F)c(NC4CC(C)(C)N(C)C(C)(C)C4)n3)n2)cc1F [II-137]	460	
COc1ccc(Nc2ncc(F)c(NC3CC(C)(C)N(C)C3(C)C)n2)cc1Cl (centres unmarked) [Compound I-280, 5-Fluoro-N2-(3-chloro-4-methoxy)phenyl-N4-(1,2,2,5,5-pentamethylpyrrolidin-3-yl)-2,4-pyrimidinediamine]		2730
CN1C(=O)C2(CCC2)Oc2cc(Nc3ncc(F)c(NC4CC(C)(C)N(C)C(C)(C)C4)n3)ccc21 [II-68]		261
CC1(C)CC(Nc2nc(Nc3ccc4c(c3)OCC(C(N)=O)O4)ncc2F)CC(C)(C)N1 (centres unmarked) [II-159]	8910	
CN1C(C)(C)CC(Nc2nc(Nc3nc4ccc(F)cc4s3)ncc2F)CC1(C)C [II-131]	990	
CC(=O)N1CCN(c2ccc(Nc3ncc(F)c(NC4CC(C)(C)N(C)C(C)(C)C4)n3)cc2C(F)(F)F)CC1 [Compound I-49]		284
COc1cc(Nc2nc(C)cc(NC3CC(C)(C)N(C)C(C)(C)C3)n2)cc(OC)c1 [IV-2]	3140	
CN1C(C)(C)CC(Nc2nc(Nc3cccc(NS(C)(=O)=O)c3)ncc2F)CC1(C)C [Compound I-243]		684
COc1cc(Nc2ncc(F)c(NC3CC(C)(C)N(C)C(C)(C)C3)n2)ccc1-n1nc(C)cc1C [Compound I-361]		4660
COc1cnc(Nc2ccc3c(c2)OCCO3)nc1NC1CC(C)(C)N(C)C(C)(C)C1 [II-129]	10900	
CN1CCN(c2ccc(Nc3ncc(F)c(NC4CCN(CCO)CC4)n3)cc2Cl)CC1 [III-8, N2-[3-Chloro-4-(4-methylpiperazino)]phenyl-5-fluoro-N4-[1-(2-hydroxyethyl)piperidin-4-yl]-2,4-pyrimidinediamine]		2610
C#Cc1cnc(Nc2cc(OC)cc(OC)c2)nc1NC1CC(C)(C)N(C)C(C)(C)C1 [Compound I-433]	2350	
Cc1cnc(Nc2ccc(N3CCN(C)CC3)c(C(F)(F)F)c2)nc1NC1CC(C)(C)N(C)C(C)(C)C1 [Compound I-30]		335
CC(C)N1CCc2cc(Nc3ncc(F)c(NC4CC(C)(C)N(C)C(C)(C)C4)n3)ccc21 [II-53]	4740	
CN1C(C)(C)CC(Nc2nc(Nc3cc(C(F)(F)F)c(Br)c(C(F)(F)F)c3)ncc2F)CC1(C)C [Compound I-117]		1250
COc1cc(Nc2ncc(F)c(NC3CC(C)(C)N(C)C(C)(C)C3)n2)ccc1N1CCN(C)CC1 [Compound I-55]		1570
CC1(C)CC(Nc2nc(Nc3ccc4c(c3)OC3(CCCC3)O4)ncc2F)CC(C)(C)N1 [II-120]	1350	
COc1ccc(Nc2ncc(F)c(NC3CC(C)(C)N(C)C(C)(C)C3)n2)cc1-c1cccnc1 [Compound I-194]		804
CN1C(C)(C)CC(Nc2nc(Nc3ccc(F)c(F)c3)ncc2F)CC1(C)C [Compound I-21]		414
CN1C(C)(C)CC(Nc2nc(Nc3cnc4c(c3)OC(F)(F)C(=O)N4)ncc2F)CC1(C)C [II-25]	2070	
CN1C(C)(C)CC(Nc2nc(Nc3ccc(OC(F)(F)F)c(-c4cnn(C)c4)c3)ncc2F)CC1(C)C [Compound I-210]		1240

Structure (SMILES)	IC50 (Homo sapiens, T-cell, 24 h) [nM]	IC50 (24 hours) [nM]
CN1C(C)(C)CC(Nc2nc(Nc3ccc(OCCN4CCOCC4)c(Cl)c3)ncc2F)CC1(C)C [Compound I-368]		297
CNC(=O)c1cc(Nc2ncc(F)c(NC3CC(C)(C)N(C)C(C)(C)C3)n2)ccc1N1CCN(C)CC1 [Compound I-54]		3060
CCN1CCN(c2cc(Nc3ncc(F)c(NC4CC(C)(C)N(C)C(C)(C)C4)n3)ccc2Cl)CC1 [Compound I-41]		2630
CN1C(C)(C)CC(Nc2nc(Nc3cc(F)c(F)c(F)c3)ncc2F)CC1(C)C [Compound I-347]		617
COc1cc(Nc2ncc(F)c(NC3CC(C)(C)N(C)C(C)(C)C3)n2)cc(OCCN2CCCC2)c1 [Compound I-434]	270	
CCN(CC)C1CCC(Nc2nc(Nc3ccc(OC)c(Cl)c3)ncc2F)CC1 (centres unmarked) [IV-5, N2-(3-Chloro-4-methoxy)phenyl-N4-(4-diethylamino)cyclohexyl-5-fluoro-2,4-pyrimidinediamine]	4610	
CN1C(C)(C)CC(Nc2nc(N[C@@H]3CCc4ccccc43)ncc2F)CC1(C)C [II-84]	17500	
COc1ccc(Nc2ncc(Br)c(NC3CC(C)(C)N(C)C(C)(C)C3)n2)cc1OC [Compound I-274]		1210
COc1cc(Nc2ncc(F)c(NC3CC(C)(C)N(C)C(C)(C)C3)n2)ccc1NC(=O)c1ccco1 [Compound I-353]		1540
CN1C(C)(C)CCC(Nc2nc(Nc3ccc(N4CCN(S(C)(=O)=O)CC4)c(C(F)(F)F)c3)ncc2F)CC1(C)C (centres unmarked) [Compound I-264, 5-Fluoro-N2-[4-methylsulfonylpiperazin-lyl-3-trifluoromethyl]phenyl-N4-(1,2,2,7,7-pentamethylazepan-4-yl)-2,4-pyrimidinediamine]		4300
CN1C(C)(C)CC(Nc2nc(Nc3ccc(N4CCN(S(C)(=O)=O)CC4)c(Cl)c3)ncc2[N+](=O)[O-])CC1(C)C [Compound I-73]		665
Cc1cc(Nc2ncc(F)c(NC3CC(C)(C)N(C)C(C)(C)C3)n2)ccc1-c1cnn(C)c1 [Compound I-151]		635
CN1C(C)(C)CC(Nc2nc(Nc3ccc(C(=O)NCc4cccnc4)cc3)ncc2F)CC1(C)C [Compound I-367]		3700
CN1C(C)(C)CC(Nc2nc(Nc3ccc4c(n3)NCCO4)ncc2F)CC1(C)C [II-24]	11300	
CN1C(C)(C)CC(Nc2nc(Nc3nc4ccc([N+](=O)[O-])cc4s3)ncc2F)CC1(C)C [II-17]	845	
CN1CCN(c2ncc(Nc3ncc(F)c(NC4CC(C)(C)N(C)C(C)(C)C4)n3)cc2Cl)CC1 [Compound I-288]		374
CC1(C)CC(Nc2nc(Nc3ccc(N4CCN(S(C)(=O)=O)CC4)c(Cl)c3)ncc2F)CC(C)(C)N1 [Compound I-258]		399
CN1C(C)(C)CC(Nc2nc(Nc3cc(F)cc(F)c3)ncc2F)CC1(C)C [Compound I-354]		595
COc1ccc(Nc2ncc(F)c(NC3CC(C)(C)N(C)C(C)(C)C3)n2)cc1OCc1cccnc1 [Compound I-418]		2190
CN1C(=O)C(F)(F)Oc2cc(Nc3ncc(Cl)c(NC4CC(C)(C)N(C)C(C)(C)C4)n3)ccc21 [II-28]	550	
